This note sets out measurements from a melting point compilation (Tetko et al.).

The melting point is the temperature of the solid-liquid transition.

Regarding `O=C1NCCNc2ccccc21`, the melting point is 151 to 153 °C.

As for `O=c1c2ccccc2nc2n1CCO2`, the melting point was in the range of 160 to 163 °C. The same measure for `NCc1cc(OCC(F)F)ccn1`: 71 to 73 °C; for `Cc1noc(C=Cc2ccc(F)cc2)c1N`: 167 to 169 °C. The same measure for `COc1cc(CO)c([N+](=O)[O-])cc1OCC(F)F`: 107 to 109 °C; for `CCn1c(SCC(=O)O)nnc1-c1cccs1`: 157 to 159 °C. The same measure for `CCOc1cc(C(=O)O)ccn1`: 171 to 173 °C; for `CCN(CC)S(=O)(=O)CC(=O)O`: 59 to 61 °C; for `CCCCOc1cc(C=O)ccc1OC`: 39 to 41 °C.

Turning to `CCc1nc2sccc2c(=O)n1N`, the melting point lay in the range of 132 to 134 °C. On to `CN1CC(C(=O)O)Cc2ccccc21` (stereo unspecified), for which the melting point was 209 to 211 °C.

On to `CC(O)c1ccccc1NC(=O)c1ccccc1` (stereo unspecified), for which the melting point fell in the range of 111 to 113 °C. The same measure for `CC1CCC(C(C)C)C(OC(=O)CSc2ccccc2C(=O)O)C1` (stereo unspecified): 137 to 139 °C; for `CC(Cl)C(=O)N1CC(=O)Nc2cc(C(F)(F)F)ccc21` (stereo unspecified): 152 to 154 °C. The same measure for `COC(=O)c1cc(S(N)(=O)=O)ccc1O`: 136 to 138 °C; for `O=C(O)C1CC(=O)N(c2nccs2)C1` (stereo unspecified): 184 to 186 °C; for `O=[N+]([O-])c1ccc(-c2nnc(CCl)o2)cc1`: 128 to 130 °C. The figure for `OCc1sc2ccccc2c1Cl` is 90 to 92 °C. For `COc1ccc(C(=O)CCCC(=O)O)cc1`, the melting point lay within 138 to 140 °C. The figure for `Cc1nc(-c2c[nH]c(C(=O)O)c2)cs1` is 209 to 211 °C; for `CC(=O)Oc1cc(C(=O)O)cc(OC(C)=O)c1OC(C)=O` it is 163 to 165 °C; for `Cc1nc(N)sc1Cc1ccc(F)cc1` it is 94 to 96 °C.

With `Cc1cc(C#N)c(N)s1`, the melting point lay within 100 to 102 °C. Take `O=C(O)c1ccc(N2CC=CC2)cc1`: the melting point lay in the range of 285 to 287 °C. The figure for `Cc1ccc(-c2nn(Cc3ccccc3)cc2C(=O)O)cc1` is 157 to 159 °C; for `COC(=O)c1cc2c(F)cc(F)cc2[nH]1` it is 198 to 200 °C; for `Cc1ccc(SCC(=O)Nc2ccccc2C)c(N)c1` it is 115 to 117 °C. The figure for `CCC(C)NC(=O)C1CC(C)Nc2ccccc21` (stereo unspecified) is 121 to 123 °C; for `CC(=O)c1ccc(Cl)c(Cl)c1O` it is 108 to 110 °C.

`N#Cc1cnn(-c2ccc(Br)cc2)c1N` registered a melting point of 177 to 179 °C.

For `O=C(O)c1n[nH]cc1[N+](=O)[O-]`, the melting point was 223 to 225 °C. The same measure for `O=S(=O)(Cl)c1ccc(Cl)nc1`: 48 to 50 °C.

As for `CCCOC(=O)c1cc(-c2cncnc2)ccc1N`, the melting point lay in the range of 145 to 147 °C. The figure for `C/C(=N\O)c1sc(C)nc1C` is 131 to 133 °C; for `Cn1cc(-c2cccc(C(=O)O)c2)cn1` it is 213 to 215 °C. The same measure for `COc1ccc(-c2cc(C(=O)O)nn2-c2ccccc2)cc1`: 198 to 200 °C; for `Cn1ncnc1-c1cccc(N)c1`: 93 to 95 °C. `O=C(CCl)NC(=O)NCCC1=CCCCC1` yielded a melting point of 200 to 202 °C. The same measure for `O=C(NCc1ccccc1)c1cccc(O)c1`: 140 to 142 °C; for `Cc1ccc(C#N)c(=O)n1C`: 129 to 131 °C. With `Cc1nn(CCC(=O)O)c(C)c1[N+](=O)[O-]`, the melting point lay in the range of 116 to 118 °C. The figure for `Cc1nc(CNC(=O)OC(C)(C)C)ccc1C(=O)O` is 163 to 165 °C; for `Cc1c(C(=O)O)cnn1CCC#N` it is 159 to 161 °C; for `Cn1c(=O)n(C)c2cc(N)ccc21` it is 148 to 150 °C. `COc1ccc(CC#N)cc1[N+](=O)[O-]` had a melting point of 84 to 86 °C. The same measure for `ClCc1csc(-c2ccc3c(c2)OCO3)n1`: 106 to 108 °C. In the case of `O=C(O)Cc1csc(NC(=O)c2ccccc2F)n1`, the melting point fell in the range of 204 to 206 °C. For the compound `O=C(O)c1ccccc1Cc1nc2ccccc2s1`, the melting point was 182 to 184 °C. The figure for `Nc1ccnn1Cc1ccccn1` is 68 to 70 °C. The figure for `Nc1ncc(Cc2ccc(Cl)cc2Cl)s1` is 109 to 111 °C; for `O=C(O)C1(c2cccc(F)c2)CC1` it is 115 to 117 °C. Compound `Cc1sc(NC(=O)C2CC2)c(C(=O)O)c1C` gave a melting point of 148 to 152 °C.

As to `CC(Cl)C(=O)NC(C)c1ccc2c(c1)OCCO2` (stereo unspecified), the melting point is 110 to 112 °C. The figure for `CCOC(=O)C1SC(=N)NC1=O` (stereo unspecified) is 175 to 177 °C. The figure for `CC(C)(C)OC(=O)N1CCC(NCC(F)(F)F)CC1` is 51 to 53 °C; for `Sc1nnc(-c2ccc3ccccc3c2)o1` it is 226 to 228 °C. `COc1ccccc1C(C)NC(=O)C(C)Cl` (stereo unspecified) came in with a melting point of 109 to 111 °C. The figure for `C#CCNC(=O)c1ccccc1N` is 96 to 98 °C; for `O=c1[nH]c(CCl)nc2cc(C(F)(F)F)ccc12` it is 209 to 211 °C. The same measure for `NS(=O)(=O)c1cccc(NC(=O)Oc2ccccc2)c1`: 193 to 195 °C. The figure for `N#CCc1nc2scc(-c3ccccc3)c2c(=O)[nH]1` is 279 to 281 °C; for `Nc1ncn(Cc2ccncc2)n1` it is 156 to 158 °C. The compound `O=[N+]([O-])c1ccc(Cl)c2c1CCCN2` had a melting point of 93 to 95 °C. The compound `Clc1cnc(N2CCNCC2)c(Cl)c1` registered a melting point of 59 to 61 °C. The same measure for `Nc1nnc(Cc2ccsc2)o1`: 151 to 153 °C; for `N#Cc1cc([N+](=O)[O-])ccc1S(=O)(=O)Cl`: 99 to 101 °C.

The compound `CC(Cl)C(=O)Nc1ccccc1C(=O)NCc1ccco1` (stereo unspecified) displayed a melting point of 102 to 104 °C. The figure for `Cc1ccc(C#N)c(N2CCOCC2)c1` is 86 to 88 °C; for `CCOc1cc(Br)c(C=O)cc1OCC` it is 71 to 72 °C; for `CC(C)Oc1ccc([N+](=O)[O-])c(C(=O)O)c1` it is 135 to 137 °C.

As to `OC1C2CCCC1CN(Cc1ccccc1)C2` (stereo unspecified), the melting point lay within 88 to 90 °C. The figure for `Cn1ncc2c(=O)[nH]c(Cl)nc21` is 268 to 270 °C; for `Cc1cc(N)c(C(N)=O)cc1F` it is 192 to 194 °C; for `CCS(=O)(=O)c1nc2ccc(N)cc2s1` it is 90 to 92 °C. The same measure for `CC1CCC(C(C)C)C(OC(=O)CCl)C1` (stereo unspecified): 65 to 66 °C; for `CC(C)(C)NS(=O)(=O)c1ccc(Cl)c([N+](=O)[O-])c1`: 88 to 90 °C; for `N#Cc1ccccc1Oc1ccc(N)cc1F`: 119 to 121 °C. The same measure for `O=C(O)CC(O)(c1nc2ccccc2o1)C(F)(F)F` (stereo unspecified): 194 to 196 °C. With `CC(=Cc1ccc(OCc2ccccc2)c(OCc2ccccc2)c1)C(=O)O`, the melting point lay in the range of 138 to 140 °C.

In turn, `CC(C)(C)OC(=O)NCCNS(=O)(=O)c1cccc(N)c1` came in with a melting point of 148 to 150 °C. The same measure for `Clc1cccc2c1NCC2`: 29 to 31 °C. With `O=C1NCCC1c1ccccc1` (stereo unspecified), the melting point is 82 to 84 °C. The figure for `OCc1nc2cc(C(F)(F)F)ccc2s1` is 96 to 98 °C; for `CN(CC(=O)O)c1cnccn1` it is 170 to 172 °C. The figure for `CNC(=O)COc1ccc(C(=O)O)cc1OC` is 221 to 223 °C; for `O=C(O)C1CCN(c2ncccn2)CC1` it is 94 to 96 °C. `CCOc1ccc(-c2nnc(S)n2N)cc1` returned a melting point of 208 to 212 °C.

With `CC(=O)Nc1scc(-c2cccs2)c1C(=O)O`, the melting point lay in the range of 227 to 229 °C. The figure for `Cc1ccc2c(c1C)OCCCC2=O` is 50 to 52 °C; for `COc1cc(C=O)cc2sc(=O)oc12` it is 160 to 162 °C. The figure for `O=C(O)C=Cc1cncc(O)c1` is 243 to 245 °C; for `NC(CN1CCCC1=O)c1ccccc1` (stereo unspecified) it is 99 to 101 °C.

The compound `COCCNC(=O)Nc1ccc(N)cc1` had a melting point of 135 to 137 °C. The figure for `O=C1CNC(=O)N1CCCl` is 114 to 116 °C; for `Cc1sc2nc(Cn3cnc([N+](=O)[O-])c3)nc(Cl)c2c1C` it is 185 to 187 °C; for `Nc1ncc(Cc2cccc(F)c2)s1` it is 82 to 84 °C. The same measure for `CN(C)c1ccc([N+](=O)[O-])cc1C(=O)O`: 149 to 151 °C; for `CC1(C)CC(=O)OC1=O`: 29 to 31 °C.

In turn, `O=C(O)c1cnns1` yielded a melting point of 103 to 105 °C. The figure for `O=Cc1cnn(CC(F)(F)F)c1` is 56 to 58 °C. The same measure for `O=C(O)c1c[nH]nc1-c1ccc(F)cc1`: 302 to 304 °C. The same measure for `Cc1nn(-c2ccccc2Cl)c(C(F)F)c1C(=O)O`: 204 to 206 °C; for `O=C(O)c1ccc(F)c(S(=O)(=O)N2CCOCC2)c1`: 175 to 178 °C; for `NC(=S)N1CCSCC1`: 157 to 159 °C.

For the compound `CCCN1C(=O)CC(=O)NC1=S`, the melting point was 127 to 129 °C.

Consider `CCOc1cc(C(=O)O)ccc1C`, for which the melting point lay in the range of 173 to 175 °C. `COc1c(C)cnc(Cn2ccc(N)n2)c1C` yielded a melting point of 59 to 61 °C. The figure for `CC(C)(C)OC(=O)N1CCC(C(=O)O)C1` (stereo unspecified) is 134 to 136 °C. Compound `O=c1cc(CO)nc2sccn12` had a melting point of 193 to 195 °C.

In turn, `O=C(O)C1(C(=O)Nc2ccc(F)cc2)CC1` yielded a melting point of 179 to 181 °C. Compound `Cc1c(N)cccc1N1CCOC1=O` yielded a melting point of 140 to 142 °C. `CCOC(=O)c1nn(-c2ccccc2)cc1O` came in with a melting point of 86 to 88 °C. Consider `CS(=O)(=O)c1cccc(C(=O)Cl)c1`, for which the melting point fell in the range of 85 to 87 °C. The compound `CCOC(=O)c1ccc(OCC#N)cc1` registered a melting point of 73 to 75 °C. The same measure for `CC(=O)Nc1cc(F)c(S(=O)(=O)Cl)c(F)c1`: 133 to 135 °C; for `NCCNc1cn[nH]c(=O)c1Cl`: 195 to 197 °C; for `Cc1nn(C)c(C)c1CC(=O)O`: 223 to 225 °C. `Cc1nc2cc(NC(=O)CCC(=O)O)ccc2o1` displayed a melting point of 184 to 186 °C. The same measure for `COc1cc(Br)c(S(=O)(=O)Cl)cc1OC`: 92 to 94 °C. The same measure for `O=[N+]([O-])c1ccccc1-c1cn[nH]c1`: 105 to 107 °C; for `COC(=O)c1sc2nc(CCl)nc(Cl)c2c1C`: 125 to 127 °C.
